# Results published in patent publication US8450304B2, “4-azetidinyl-1-heteroaryl-cyclohexanol antagonists of CCR2” (Janssen Pharmaceutica N.V., priority 2008, dated 2013).
# Molecular target: T1, CCR2 (Homo sapiens, UniProt P41597)
# T1 construct: host or cells: THP-1 (human monocytic cell line), whole cells
# Assay: MCP-1 Receptor Binding Assay in THP-1 Cells
# Conditions: 0.5 nM 125I labeled MCP-1, 2 hours at 30° C., read-out: Inhibition of MCP-1 Binding IC50, CCR2 Binding
# Experimental: Compounds of the invention were subjected to various representative biological tests. […] MCP-1 Receptor Binding Assay in THP-1 Cells
# Human monocytic cell line THP-1 cells were obtained from American Type Culture Collection (Manassas, Va., USA). […] The cell density was maintained […].
# 1 μM cold MCP-1 was used for nonspecific binding.
# T1 sequence (P41597 whole entry): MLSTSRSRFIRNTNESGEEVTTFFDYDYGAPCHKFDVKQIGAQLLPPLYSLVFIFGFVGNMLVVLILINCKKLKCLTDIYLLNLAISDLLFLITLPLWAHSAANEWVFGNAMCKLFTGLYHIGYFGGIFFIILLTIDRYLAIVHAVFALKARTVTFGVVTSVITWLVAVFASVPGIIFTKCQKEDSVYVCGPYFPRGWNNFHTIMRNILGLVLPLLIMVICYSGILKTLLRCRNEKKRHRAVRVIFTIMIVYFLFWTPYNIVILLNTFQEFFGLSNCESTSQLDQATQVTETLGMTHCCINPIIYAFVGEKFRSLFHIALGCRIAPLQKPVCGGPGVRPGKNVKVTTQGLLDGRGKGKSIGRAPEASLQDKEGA
row,SMILES,IC50 [nM]
1,"O=C(CNC(=O)c1cccc(C(F)(F)F)c1)NC1CN(C2CCC(O)(c3ccc(OCc4ccccc4)nc3)CC2)C1 (single isomer, unassigned) [Example 7a, N-({1-[4-(6-Benzyloxy-pyridin-3-yl)-4-hydroxy-cyclohexyl]-azetidin-3-ylcarbamoyl}-methyl)-3-trifluoromethyl-benzamide]",1900
2,"O=C(CNC(=O)c1cccc(C(F)(F)F)c1)NC1CN(C2CCC(O)(c3ccc(Br)cn3)CC2)C1 (single isomer, unassigned) [Example 25a, N-({1-[4-(5-Bromo-pyridin-2-yl)-4-hydroxy-cyclohexyl]-azetidin-3-ylcarbamoyl}-methyl)-3-trifluoromethyl-benzamide]",3100
3,"COc1ncc(C2(O)CCC(N3CC(NC(=O)CNC(=O)c4cccc(C(F)(F)F)c4)C3)CC2)cn1 (single isomer, unassigned) [Example 28a, N-({1-[4-Hydroxy-4-(2-methoxy-pyrimidin-5-yl)-cyclohexyl]-azetidin-3-ylcarbamoyl}-methyl)-3-trifluoromethyl-benzamide]",1100
4,"COc1ncc(C2(O)CCC(N3CC(NC(=O)CNC(=O)c4cccc(C(F)(F)F)c4)C3)CC2)c(OC)n1 (single isomer, unassigned) [Example 29a, N-({1-[4-(2,4-Dimethoxy-pyrimidin-5-yl)-4-hydroxy-cyclohexyl]-azetidin-3-ylcarbamoyl}-methyl)-3-trifluoromethyl-benzamide]",24000
5,"C[Si](C)(C)c1ncc(C2(O)CCC(N3CC(NC(=O)CNC(=O)c4cccc(C(F)(F)F)c4)C3)CC2)s1 (single isomer, unassigned) [Example 39a, N-({1-[4-Hydroxy-4-(2-trimethylsilanyl-thiazol-5-yl)-cyclohexyl]-azetidin-3-ylcarbamoyl}-methyl)-3-trifluoromethyl-benzamide]",13
6,"O=C(CNC(=O)c1cccc(C(F)(F)F)c1)NC1CN(C2CCC(O)(c3cccnc3)CC2)C1 (stereo not shown) [Example 15, N-{[1-(4-Hydroxy-4-pyridin-3-yl-cyclohexyl)-azetidin-3-ylcarbamoyl]-methyl}-3-trifluoromethyl-benzamide]",190
7,"COc1ccc(C2(O)CCC(N3CC(NC(=O)CNC(=O)c4ccc(C(F)(F)F)cc4)C3)CC2)cn1 (stereo not shown) [Example 16, N-({1-[4-Hydroxy-4-(6-methoxy-pyridin-3-yl)-cyclohexyl]-azetidin-3-ylcarbamoyl}-methyl)-4-trifluoromethyl-benzamide]",6450
8,"COc1ccc(C2(O)CCC(N3CC(NC(=O)CNC(=O)c4cc(F)c(F)c(F)c4)C3)CC2)cn1 (stereo not shown) [Example 17, 3,4,5-Trifluoro-N-({1-[4-hydroxy-4-(6-methoxy-pyridin-3-yl)-cyclohexyl]-azetidin-3-ylcarbamoyl}-methyl)-benzamide]",6400
9,"COc1ccc(C2(O)CCC(N3CC(NC(=O)CNC(=O)c4ccc(Cl)c(Cl)c4)C3)CC2)cn1 (stereo not shown) [Example 18, 3,4-Dichloro-N-({1-[4-hydroxy-4-(6-methoxy-pyridin-3-yl)-cyclohexyl]-azetidin-3-ylcarbamoyl}-methyl)-benzamide]",120
10,"COc1ccc(C2(O)CCC(N3CC(NC(=O)CNC(=O)c4cc(F)cc(F)c4)C3)CC2)cn1 (stereo not shown) [Example 19, 3,5-Difluoro-N-({1-[4-hydroxy-4-(6-methoxy-pyridin-3-yl)-cyclohexyl]-azetidin-3-ylcarbamoyl}-methyl)-benzamide]",4300
11,"COc1ccc(C2(O)CCC(N3CC(NC(=O)CNC(=O)c4ccc5c(c4)OCO5)C3)CC2)cn1 (stereo not shown) [Example 20, Benzo[1,3]dioxole-5-carboxylic acid ({1-[4-hydroxy-4-(6-methoxy-pyridin-3-yl)-cyclohexyl]-azetidin-3-ylcarbamoyl}-methyl)-amide]",6900
12,"COc1ccc(C2(O)CCC(N3CC(NC(=O)CNC(=O)c4cccc(C#N)c4)C3)CC2)cn1 (stereo not shown) [Example 21, 3-Cyano-N-({1-[4-hydroxy-4-(6-methoxy-pyridin-3-yl)-cyclohexyl]-azetidin-3-ylcarbamoyl}-methyl)-benzamide]",7500
13,"COc1ccc(C2(O)CCC(N3CC(NC(=O)CNC(=O)c4cccc(C)c4)C3)CC2)cn1 (stereo not shown) [Example 22, N-({1-[4-Hydroxy-4-(6-methoxy-pyridin-3-yl)-cyclohexyl]-azetidin-3-ylcarbamoyl}-methyl)-3-methyl-benzamide]",2300
14,"COc1cccc(C(=O)NCC(=O)NC2CN(C3CCC(O)(c4ccc(OC)nc4)CC3)C2)c1 (stereo not shown) [Example 23, N-({1-[4-Hydroxy-4-(6-methoxy-pyridin-3-yl)-cyclohexyl]-azetidin-3-ylcarbamoyl}-methyl)-3-methoxy-benzamide]",14500

# Second part, the compound after the results:
row,IC50 [nM],SMILES
1,440,"Cn1cc(Br)c(C2(O)CCC(N3CC(NC(=O)CNC(=O)c4cccc(C(F)(F)F)c4)C3)CC2)n1 (single isomer, unassigned) [Example 31a, N-({1-[4-(4-Bromo-1-methyl-1H-pyrazol-3-yl)-4-hydroxy-cyclohexyl]-azetidin-3-ylcarbamoyl}-methyl)-3-trifluoromethyl-benzamide]"
2,240,"O=C(CNC(=O)c1cccc(C(F)(F)F)c1)NC1CN(C2CCC(O)(c3ncc(CO)s3)CC2)C1 (single isomer, unassigned) [Example 35a, N-({1-[4-Hydroxy-4-(5-hydroxymethyl-thiazol-2-yl)-cyclohexyl]-azetidin-3-ylcarbamoyl}-methyl)-3-trifluoromethyl-benzamide]"
3,3.8,"O=C(CNC(=O)c1cccc(C(F)(F)F)c1)NC1CN(C2CCC(O)(c3nc4ccc(Br)cc4s3)CC2)C1 (single isomer, unassigned) [Example 36a, N-({1-[4-(6-Bromo-benzothiazol-2-yl)-4-hydroxy-cyclohexyl]-azetidin-3-ylcarbamoyl}-methyl)-3-trifluoromethyl-benzamide]"
4,370,"Cc1csc(C2(O)CCC(N3CC(NC(=O)CNC(=O)c4cccc(C(F)(F)F)c4)C3)CC2)n1 (single isomer, unassigned) [Example 38a, N-({1-[4-Hydroxy-4-(4-methyl-thiazol-2-yl)-cyclohexyl]-azetidin-3-ylcarbamoyl}-methyl)-3-trifluoromethyl-benzamide]"
5,200,"Cc1ncc(C2(O)CCC(N3CC(NC(=O)CNC(=O)c4cccc(C(F)(F)F)c4)C3)CC2)s1 (single isomer, unassigned) [Example 41a, N-({1-[4-Hydroxy-4-(2-methyl-thiazol-5-yl)-cyclohexyl]-azetidin-3-ylcarbamoyl}-methyl)-3-trifluoromethyl-benzamide]"
6,340,"C#Cc1ncc(C2(O)CCC(N3CC(NC(=O)CNC(=O)c4cccc(C(F)(F)F)c4)C3)CC2)s1 (single isomer, unassigned) [Example 44a, N-({1-[4-(2-Ethynyl-thiazol-5-yl)-4-hydroxy-cyclohexyl]-azetidin-3-ylcarbamoyl}-methyl)-3-trifluoromethyl-benzamide]"
7,660,"C[S+]([O-])c1ncc(C2(O)CCC(N3CC(NC(=O)CNC(=O)c4cccc(C(F)(F)F)c4)C3)CC2)s1 (single isomer, unassigned) [Example 46, N-({1-[4-Hydroxy-4-(2-methanesulfinyl-thiazol-5-yl)-cyclohexyl]-azetidin-3-ylcarbamoyl}-methyl)-3-trifluoromethyl-benzamide]"
8,260,"CS(=O)(=O)c1ncc(C2(O)CCC(N3CC(NC(=O)CNC(=O)c4cccc(C(F)(F)F)c4)C3)CC2)s1 (single isomer, unassigned) [Example 47a, N-({1-[4-Hydroxy-4-(2-methanesulfonyl-thiazol-5-yl)-cyclohexyl]-azetidin-3-ylcarbamoyl}-methyl)-3-trifluoromethyl-benzamide]"
9,90,"Cc1cc(C2(O)CCC(N3CC(NC(=O)CNC(=O)c4cccc(C(F)(F)F)c4)C3)CC2)sn1 (single isomer, unassigned) [Example 58a, N-({1-[4-Hydroxy-4-(3-methyl-isothiazol-5-yl)-cyclohexyl]-azetidin-3-ylcarbamoyl}-methyl)-3-trifluoromethyl-benzamide]"
10,37,"Cc1ccc(C2(O)CCC(N3CC(NC(=O)CNC(=O)c4cc(F)cc(C(F)(F)F)c4)C3)CC2)cn1 (single isomer, unassigned) [Example 64a, 3-Fluoro-N-({1-[4-hydroxy-4-(6-methyl-pyridin-3-yl)-cyclohexyl]-azetidin-3-ylcarbamoyl}-methyl)-5-trifluoromethyl-benzamide]"
11,330,"Cc1ccc(C2(O)CCC(N3CC(NC(=O)CNC(=O)c4cc(C(F)(F)F)cc(C(F)(F)F)c4)C3)CC2)cn1 (single isomer, unassigned) [Example 66a, N-({1-[4-Hydroxy-4-(6-methyl-pyridin-3-yl)-cyclohexyl]-azetidin-3-ylcarbamoyl}-methyl)-3,5-bis-trifluoromethyl-benzamide]"
12,370,"O=C(CNC(=O)c1cc(C(F)(F)F)cc(C(F)(F)F)c1)NC1CN(C2CCC(O)(c3nccs3)CC2)C1 (single isomer, unassigned) [Example 67a, N-{[1-(4-Hydroxy-4-thiazol-2-yl-cyclohexyl)-azetidin-3-ylcarbamoyl]-methyl}-3,5-bis-trifluoromethyl-benzamide]"
13,240,"Cc1ccc(C2(O)CCC(N3CC(NC(=O)CNC(=O)c4cc(C(F)(F)F)ccc4C(F)(F)F)C3)CC2)cn1 (single isomer, unassigned) [Example 69a, N-({1-[4-Hydroxy-4-(6-methyl-pyridin-3-yl)-cyclohexyl]-azetidin-3-ylcarbamoyl}-methyl)-2,5-bis-trifluoromethyl-benzamide]"
14,590,"Cc1ccc(C2(O)CCC(N3CC(NC(=O)CNC(=O)c4cc(C(F)(F)F)ccc4Cl)C3)CC2)cn1 (single isomer, unassigned) [Example 70a, 2-Chloro-N-({1-[4-hydroxy-4-(6-methyl-pyridin-3-yl)-cyclohexyl]-azetidin-3-ylcarbamoyl}-methyl)-5-trifluoromethyl-benzamide]"
